In patent US20120323012A1, “4-(AZACYCLOALKYL) -BENZENE-1,3-DIOL DERIVATIVES AS TYROSINASE INHIBITORS AND THEIR SYNTHESIS AND USE THEREOF” (GALDERMA RESEARCH & DEVELOPMENT, priority 2009, published 2012) one finds IC50 and melting point data, which are given here for 3 compounds.

Series [1] has as its target T1, tyrosinase (Mus musculus, UniProt P11344).
T1 construct: the supernatant obtained constituted the cell lysate used as the source of tyrosinase in the enzymatic test; endogenous in cells; host or cells: B16F1 murine melanoma cells, stimulated with alpha-MSH; detergent lysate supernatant
T1 sequence (P11344 19-533): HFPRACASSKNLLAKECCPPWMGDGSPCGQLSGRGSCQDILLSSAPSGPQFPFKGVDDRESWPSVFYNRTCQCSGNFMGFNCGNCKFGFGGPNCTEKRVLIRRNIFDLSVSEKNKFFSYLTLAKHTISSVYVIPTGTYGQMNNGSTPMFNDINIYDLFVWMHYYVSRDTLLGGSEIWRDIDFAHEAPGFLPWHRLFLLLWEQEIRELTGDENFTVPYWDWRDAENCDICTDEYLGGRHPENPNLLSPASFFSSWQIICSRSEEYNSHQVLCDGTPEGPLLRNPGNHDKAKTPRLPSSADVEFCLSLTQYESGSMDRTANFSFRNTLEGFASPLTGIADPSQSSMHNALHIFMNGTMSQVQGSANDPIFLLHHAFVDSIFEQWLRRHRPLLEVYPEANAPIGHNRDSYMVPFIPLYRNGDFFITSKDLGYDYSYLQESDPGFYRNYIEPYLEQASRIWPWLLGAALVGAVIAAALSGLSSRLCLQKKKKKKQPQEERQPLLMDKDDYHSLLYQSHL
As to the kind of experiment: Tyrosinase activity inhibition test (B16F1 cell lysate, L-tyrosine/MBTH, 520 nm). The settings on record: lysate of B16F1 cells, 6 hours incubation at 37° C.; read-out: Tyrosine hydroxylase/Dopa oxidase IC50. Format: biochemical, murine. As for the experimental part:
The activity of the inhibitors was measured using a lysate of B16F1 cells (murine melanoma line). In the presence of L-tyrosine substrate, the tyrosinase present in these cells catalyses the hydroxylation of L-tyrosine to L-DOPA then oxidation of the L-DOPA to dopaquinone. In the presence of MBTH (3-methyl-2-benzo-thiazolinone hydrazone), dopaquinone is trapped to form a pink complex which absorbs at 520 nm.
The B16F1 cells were cultivated in DMEM medium+10% foetal calf serum+10^−9 M of αMSH for 4 days at 37° C. under 7% CO2. They were treated with trypsin, washed with PBS, counted and centrifuged. The pellet was taken up in an amount of 10^7 cells/mL in lysis buffer (sodium phosphate, 10 mM pH 6.8-Igepal 1%) and the suspension was treated with ultrasound for 10 seconds. After centrifuging for 30 minutes at 4000 rpm, the supernatant obtained constituted the cell lysate used as the source of tyrosinase in the enzymatic test.
The tests were carried out in duplicate in 384-well plates with a total volume of 50 μl. Each well contained: […]
The plate was incubated at 37° C. and a spectrographic recording was produced at 520 nm after 6 hours incubation. In order to compensate for any absorption by the products, a corrected absorbance was used (absorbance at time 6 h−absorbance at time zero). […]

The subject of series [2] is MNT1 human melanoma cells. As to the kind of experiment: Melanogenesis inhibition test (14C-thiouracil incorporation normalized by 3H-leucine). Format: cell-based. As to conditions: MNT-1, 24 h incubation, 14C incorporation normalized by 3H incorporation. How it is done:
(§1) The inhibition of melanogenesis was measured in MNT1 human melanoma cells using a protocol adapted from Reigner et al, Cell Mol Biol (1999) 45: 969-980. The test was based on the concomitant incorporation of 2 radiolabelled tracers: ^14C-thiouracil is incorporated into neosynthesized melanin and reflects melanogenesis, while ^3H-leucine is incorporated into proteins and reflects cell viability and, as a result, the toxicity of the test compounds.
(§2) The MNT1 cells were plated into 96-well plates in the presence of the test compounds and radioisotopes. After 24 h incubation at 37° C., the cells were washed and the quantity of the 2 radioisotopes was measured. The test compounds were dose-response tested in order to calculate the IC50 inhibition of melanogenesis on the basis of the ^14C incorporation which was normalized by the ^3H incorporation. A cell toxicity IC50 was also calculated on the basis of the ^3H incorporation.

Series [3] can be described thus: Cell toxicity (3H-leucine incorporation) in the melanogenesis inhibition test. Format: cell-based. The settings on record: human, MNT1 human melanoma cells, 24 h incubation. How it is done:
as §1, §2

For the compound `CCCCc1ccc(O)cc1O` [4-butylresorcinol (Rucinol), 4-butylresorcinol, reference compound], the IC50 in series [1] worked out at 3 µM; in series [2], 15 µM. The same compound had an IC50 at 24 h in series [3] of 55 µM.

Turning to `O=S(=O)(Cc1ccccc1)N1CCC(c2ccc(O)cc2O)CC1` [Compound 1, 4-(1-phenylmethanesulphonylpiperidin-4-yl)-benzene-1,3-diol], the melting point is 207 to 208 °C. The compound further showed an IC50 in series [2] of 0.2 µM. For the same compound, the IC50 at 24 h in series [3] was more than 999 µM.

Regarding `Cc1ccc(S(=O)(=O)N2CCC(c3ccc(O)cc3O)CC2)cc1` [Compound 2, 4-[1-(toluene-4-sulphonyl)piperidin-4-yl]-benzene-1,3-diol], the IC50 in series [1] was 1.5 µM.

A word on the melting point: it is the temperature of the solid-liquid transition.
